Reference: the supplement of paper PMC10307832

Columns and labels:
Test in all cases: relative viability (nuclei count vs DMSO), 5 days (fraction); higher = more cells survive
[1] = compound: CN(C/C=C/C1=CC=C(C=C1)Cl)CC2=CC=CC=C2N(CCO)S(=O)(=O)C3=CC=C(C=C3)OC [KN-93] + CC(=O)Nc1cccc(-n2c(=O)n(C3CC3)c(=O)c3c(Nc4ccc(I)cc4F)n(C)c(=O)c(C)c32)c1 [Trametinib] (partner 0.02 µM)
Summary of the method: (§1)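 Dosing by pin tool came one day after lung cancer cell lines were seeded in 1536-well plates, using either one drug or a fixed anchor-drug dose plus five library-drug doses (not always all listed) in √10 steps. After 5 days, nuclei were counted on 4× images. Relative viability is treated-well nuclei count divided by vehicle-well nuclei count, and values are medians of duplicate plates.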

[2] = compound: CN(C/C=C/C1=CC=C(C=C1)Cl)CC2=CC=CC=C2N(CCO)S(=O)(=O)C3=CC=C(C=C3)OC [KN-93] + CC1(C)CCC(c2ccc(Cl)cc2)=C(CN2CCN(c3ccc(C(=O)NS(=O)(=O)c4ccc(N[C@H](CCN5CCOCC5)CSc5ccccc5)c(S(=O)(=O)C(F)(F)F)c4)cc3)CC2)C1 [Navitoclax] (partner 0.5 µM)
Summary of the method: as §1

[3] = compound: CN(C/C=C/C1=CC=C(C=C1)Cl)CC2=CC=CC=C2N(CCO)S(=O)(=O)C3=CC=C(C=C3)OC [KN-93] + COc1cccc2cc(-c3nc([C@H]4CC[C@H](C(=O)O)CC4)n4ncnc(N)c34)[nH]c12 [OSI-027] (partner 0.5 µM)
Summary of the method: as §1

[4] = compound: CN(C/C=C/C1=CC=C(C=C1)Cl)CC2=CC=CC=C2N(CCO)S(=O)(=O)C3=CC=C(C=C3)OC [KN-93] + Cc1cc(Nc2cc(N3CCN(C)CC3)nc(Sc3ccc(NC(=O)C4CC4)cc3)n2)n[nH]1 [Tozasertib] (partner 0.1 µM)
Summary of the method: as §1

[5] = compound: CN(C/C=C/C1=CC=C(C=C1)Cl)CC2=CC=CC=C2N(CCO)S(=O)(=O)C3=CC=C(C=C3)OC [KN-93] + O=C(c1cc(Cc2n[nH]c(=O)c3ccccc23)ccc1F)N1CCN(C(=O)C2CC2)CC1 [Olaparib] (partner 8 µM)
Summary of the method: as §1

Cell Line | relative viability ([1]; first compound 0.08 µM) | relative viability ([1]; first compound 0.253 µM) | relative viability ([1]; first compound 2.53 µM) | relative viability ([1]; first compound 8 µM) | relative viability ([2]; first compound 0.08 µM) | relative viability ([2]; first compound 0.253 µM) | relative viability ([2]; first compound 2.53 µM) | relative viability ([2]; first compound 8 µM) | relative viability ([3]; first compound 0.08 µM) | relative viability ([3]; first compound 0.253 µM) | relative viability ([3]; first compound 2.53 µM) | relative viability ([3]; first compound 8 µM) | relative viability ([4]; first compound 0.08 µM) | relative viability ([4]; first compound 0.253 µM) | relative viability ([4]; first compound 2.53 µM) | relative viability ([4]; first compound 8 µM) | relative viability ([5]; first compound 0.08 µM) | relative viability ([5]; first compound 0.253 µM) | relative viability ([5]; first compound 2.53 µM) | relative viability ([5]; first compound 8 µM)
201T | 0.714 | 0.754 | 0.711 | 0.599 | 1.23 | 1.21 | 1.19 | 1.07 | 0.789 | 0.558 | 0.884 | 0.373 | 0.916 | 0.99 | 0.819 | 0.508 | 0.847 | 0.857 | 0.904 | 0.706
A549 | – | – | – | – | 1.06 | 1.33 | 1.44 | 0.513 | – | – | – | – | – | – | – | – | 0.303 | 0.336 | 0.65 | 0.0828
A-427 | 0.799 | 0.746 | 0.772 | 0.438 | 0.93 | 0.843 | 0.991 | 0.664 | 0.507 | 0.621 | 0.462 | 0.265 | 0.206 | 0.193 | 0.172 | 0.165 | 0.783 | 0.559 | 0.765 | 0.51
ABC-1 | – | – | – | – | – | – | – | – | 0.455 | 0.294 | 0.509 | 0.257 | 0.158 | 0.157 | 0.217 | 0.192 | 0.785 | 0.687 | 0.978 | 0.339
BEN | 1.08 | 1.19 | 1.18 | 0.67 | – | 0.062 | 0.0593 | 0.0709 | 0.323 | 0.308 | 0.304 | 0.304 | 0.525 | 0.529 | 0.489 | 0.531 | 1.13 | 1.19 | 1.06 | 0.713
CAL-12T | 0.345 | 0.35 | 0.289 | 0.28 | 1.2 | 1.19 | 1.53 | 1.23 | 0.718 | 0.59 | 0.657 | 0.434 | 0.299 | 0.354 | 0.324 | 0.176 | 0.772 | 0.777 | 0.788 | 0.641
COR-L23 | 0.554 | 0.625 | 0.722 | 0.395 | 0.877 | 1.02 | 1.37 | 0.626 | 0.748 | 1.02 | 0.798 | 0.353 | 0.185 | 0.205 | 0.177 | 0.156 | 0.298 | 0.338 | 0.357 | 0.327
COR-L 105 | 0.452 | 0.41 | 0.437 | 0.399 | 0.733 | 0.639 | 0.731 | 0.514 | 0.618 | 0.771 | 0.588 | 0.437 | 0.399 | 0.325 | 0.329 | 0.282 | 0.722 | 0.499 | 0.545 | 0.661
ChaGo-K-1 | 0.906 | 1.03 | 0.79 | 0.785 | 1.58 | 1.08 | 1 | 0.54 | 0.585 | 0.512 | 0.449 | 0.426 | 0.234 | 0.232 | 0.243 | 0.2 | 0.388 | 0.402 | 0.442 | 0.38
EKVX | 0.359 | 0.285 | 0.341 | 0.279 | 0.824 | 0.742 | 1.13 | 0.305 | 0.536 | 0.75 | 0.743 | 0.552 | 0.378 | 0.48 | 0.369 | 0.301 | 0.761 | 0.558 | 0.802 | 0.669
EMC-BAC-2 | 0.912 | 0.826 | 0.945 | 0.714 | 0.845 | 1.32 | 1.37 | 1.05 | 0.373 | 0.355 | 0.389 | 0.337 | 0.24 | 0.276 | 0.274 | 0.274 | 0.498 | 0.441 | 0.507 | 0.431
EPLC-272H | 0.289 | 0.279 | 0.283 | 0.23 | 0.945 | 1.27 | 1.18 | 0.849 | 0.218 | 0.295 | 0.297 | 0.219 | 0.234 | 0.213 | 0.317 | 0.227 | 0.466 | 0.681 | 0.913 | 0.267
H3255 | 0.643 | 0.59 | 0.671 | 0.417 | 0.56 | 0.511 | 0.55 | 0.124 | 0.615 | 0.515 | 0.619 | 0.431 | 0.539 | 0.864 | 0.82 | 0.433 | 0.519 | 0.621 | 0.523 | 0.485
HARA | 0.632 | 0.549 | 0.434 | 0.461 | 0.983 | 1.22 | 1.02 | 0.687 | 0.427 | 0.457 | 0.413 | 0.138 | 0.125 | 0.104 | 0.111 | 0.11 | 0.524 | 0.584 | 0.718 | 0.336
HCC-15 | 0.359 | 0.367 | 0.348 | 0.306 | 0.539 | 0.718 | 0.794 | 0.579 | 0.558 | 0.722 | 0.636 | 0.527 | 0.284 | 0.523 | 0.312 | 0.101 | 0.658 | 0.731 | 0.719 | 0.522
HCC-44 | 1.14 | 0.954 | 1.04 | 0.83 | 0.852 | 0.892 | 0.951 | 0.752 | 0.547 | 0.482 | 0.555 | 0.391 | 0.912 | 0.809 | 0.863 | 0.526 | 0.935 | 0.959 | 0.994 | 0.88
